According to ChEMBL document CHEMBL5050843, “Amide substituted thiazoles as protein secretion inhibitors” (2019):

Key:
Assay type in all cases: functional, cell-based
[1] = Inhibition of constitutively active VCAMss-Gluc secretion in human Flp-In-T-REx-293 cells measured by Gaussia luciferase reporter gene method
[2] = Inhibition of TNF-alpha-FL-Gluc secretion in doxycyclin-induced human Flp-In-T-REx-293 cells measured by Gaussia luciferase reporter gene method
[3] = Inhibition of PD1ss-Gluc secretion in doxycyclin-induced human Flp-In-T-REx-293 cells measured by Gaussia luciferase reporter gene method
[4] = Inhibition of PR1ss-Gluc secretion in doxycyclin-induced human Flp-In-T-REx-293 cells measured by Gaussia luciferase reporter gene method
[5] = Inhibition of constitutively active PR1ss-Gluc secretion in human Flp-In-T-REx-293 cells measured by Gaussia luciferase reporter gene method

| Structure (SMILES) | IC50 [1] [µM] | IC50 [2] [µM] | IC50 [3] [µM] | IC50 [4] [µM] | IC50 [5] [µM] |
| --- | --- | --- | --- | --- | --- |
| CC(C)c1csc(NC(=O)c2cc3c(s2)CCCC3)n1 | 1.2 | > 80 |  |  |  |
| CC(C)(C)c1csc(NC(=O)c2cn(Cc3ccccc3)c3ccccc23)n1 |  |  | 7.05 | > 25 |  |
| CC(C)(C)c1csc(NC(=O)Cc2cn(Cc3ccccc3C#N)c3ccc(Cl)cc23)n1 |  |  | 3.65 | > 25 |  |
| CC(C)Cn1cc(CC(=O)Nc2nc(C(C)(C)C)cs2)c2cc(Cl)ccc21 |  |  | 5.38 | > 25 |  |
| CC(C)n1cc(CC(=O)Nc2nc(C(C)(C)C)cs2)c2cc(Cl)ccc21 | 0.587 |  | 4.4 | > 25 | > 25 |
| CC(=O)N(C)[C@@H](Cc1cn(Cc2ccc(F)cc2)c2ccccc12)C(=O)Nc1nc(C(C)(C)C)cs1 |  |  | > 25 | > 25 |  |
| CC(C)(C)c1csc(NC(=O)Cc2cn(-c3ccccn3)c3ccc(Cl)cc23)n1 |  |  | 8.72 | > 25 |  |
| CC(C)(C)c1csc(NC(=O)Cc2cn(Cc3ccccc3)c3ccc(Br)cc23)n1 |  |  | 6.13 | > 25 |  |
| CN[C@@H](Cc1cn(Cc2ccc(F)cc2)c2ccccc12)C(=O)Nc1nc(C(C)(C)C)cs1 |  |  | > 25 | > 25 |  |
| CC(c1ccccc1)n1cc(CC(=O)Nc2nc(C(C)(C)C)cs2)c2cc(Cl)ccc21 (stereo unspecified) | 0.217 |  | 2.66 | > 25 | > 25 |
| CC(C)(C)c1csc(NC(=O)Cc2cn(Cc3ccccc3C(N)=O)c3ccc(Cl)cc23)n1 |  |  | > 25 | > 25 |  |
| CCC(C)n1cc(CC(=O)Nc2nc(C(C)(C)C)cs2)c2cc(Cl)ccc21 (stereo unspecified) |  |  | 4.38 | > 25 |  |
| CC(C)(C)c1csc(NC(=O)Cc2cn(C3CCCC3)c3ccc(Cl)cc23)n1 |  |  | 6.52 | > 25 |  |
| CC(C)(C)Cc1csc(NC(=O)Cc2csc3ccc(Cl)cc23)n1 | 2480 |  | 6.99 | > 25 | > 25 |
| C[C@@H](C(=O)Nc1nc(C(C)(C)C)cs1)c1ccccc1 | 11.1 |  |  |  | > 25 |
| Cc1c(C(=O)Nc2nc(C(C)(C)C)cs2)sc2ccc(Cl)cc12 | > 25 |  |  |  | > 25 |
| CNC(=O)c1ccc2sc(C(=O)Nc3nc(C(C)(C)C)cs3)cc2c1 |  |  | 8.8 | 7.44 |  |
| CC(C)(C)c1csc(NC(=O)c2cccnn2)n1 | > 25 |  |  |  | > 25 |
| CC(C)(C)c1csc(NC(=O)Cc2cc(F)cc(Cl)c2)n1 | 1.91 |  |  |  | > 25 |
| CCCCCc1ccc2sc(C(=O)Nc3nc(C(C)(C)C)cs3)cc2c1 | 8.14 |  |  |  | > 25 |
| CC(C)(C)c1csc(NC(=O)Cc2cc3ccccc3s2)n1 | > 25 |  |  |  | > 25 |
| CC(C)CC(C(=O)Nc1nc(C(C)(C)C)cs1)c1csc2ccc(Cl)cc12 (stereo unspecified) | 6.53 |  |  |  | > 25 |

| Structure (SMILES) | IC50 [1] [µM] | IC50 [2] [µM] | IC50 [3] [µM] | IC50 [4] [µM] | IC50 [5] [µM] |
| --- | --- | --- | --- | --- | --- |
| CC(C)(C)c1csc(NC(=O)Cc2ccccc2)n1 | 24.1 |  |  |  | > 25 |
| COc1ccc2c(c1)c(CC(=O)Nc1nc(C(C)(C)C)cs1)cn2Cc1ccccc1 |  |  | 3.41 | > 25 |  |
| CC(C)(C)c1csc(NC(=O)CCc2csc3ccccc23)n1 | 23.1 |  |  |  | > 25 |
| CC(C)(C)c1csc(NC(=O)C2(c3cccc(Cl)c3)CCCC2)n1 | 8.15 |  |  |  | > 25 |
| CC(C)(C)c1csc(NC(=O)c2cc3cc(Br)ccc3s2)n1 | > 25 |  |  |  | > 25 |
| CC(C)(C)c1csc(NC(=O)Cc2cn(Cc3ccccc3S(C)(=O)=O)c3ccc(Cl)cc23)n1 |  |  | 13.2 | > 25 |  |
| CC(C)(C)c1csc(NC(=O)c2cccc(Cl)c2)n1 | 8.4 |  |  |  | > 25 |
| CC(C)(C)c1csc(NC(=O)Cc2cn(CC3CCCCC3)c3ccc(Cl)cc23)n1 | 0.714 |  |  |  | > 25 |
| Cc1cc(C(=O)Nc2nc(C(C)(C)C)cs2)sc1C | 9.08 |  |  |  | > 25 |
| CC(C)(C)c1csc(NC(=O)CC2CCCc3ccccc32)n1 (stereo unspecified) | 9.01 |  |  |  | > 25 |
| CC(C)(C)c1csc(NC(=O)Cc2ccccc2Cl)n1 | 18.4 |  |  |  | > 25 |
| COc1cccc(CC(=O)Nc2nc(C(C)(C)C)cs2)c1 | 10.3 |  |  |  | > 25 |
| CCc1csc(NC(=O)c2csc(C)c2)n1 | > 25 |  |  |  | > 25 |
| CC(C)(C)c1csc(NC(=O)Cn2ncc3ccccc32)n1 | > 25 |  |  |  | > 25 |
| CC(C)(C)c1csc(NC(=O)c2ccccc2Cl)n1 | > 25 |  |  |  | > 25 |
| CC(C)(C)c1csc(NC(=O)c2cccc(C(F)(F)F)c2)n1 | 7.6 |  |  |  | > 80 |
| CC(C)(C)c1csc(NC(=O)c2scc3c2CCCC3)n1 | > 25 |  |  |  | > 25 |
| CC(C)(C)c1csc(NC(=O)Cc2cn(-c3cccc(Cl)c3)c3ccc(Cl)cc23)n1 |  |  | 4.14 | > 25 |  |
| CC(C)(C)c1csc(NC(=O)c2ncn[nH]2)n1 | > 25 |  |  |  | > 25 |
| CC(C)(C)c1csc(NC(=O)Cc2cn(-c3ccc(Cl)cc3)c3ccc(Cl)cc23)n1 |  |  | 2.69 | > 25 |  |
| CC(C)(C)c1csc(NC(=O)c2sc3ccccc3c2Cl)n1 | > 25 |  |  |  | > 25 |
| C#Cc1ccc2sc(C(=O)Nc3nc(C(C)(C)C)cs3)cc2c1 | > 25 |  |  |  | > 25 |

| Structure (SMILES) | IC50 [1] [µM] | IC50 [2] [µM] | IC50 [3] [µM] | IC50 [4] [µM] | IC50 [5] [µM] |
| --- | --- | --- | --- | --- | --- |
| CC(C)(C)c1csc(NC(=O)Cc2ccc3cn[nH]c3c2)n1 | > 25 |  |  |  | > 25 |
| CC(C)(C)c1csc(NC(=O)Cc2cccnc2)n1 | > 25 |  |  |  | > 25 |
| Cc1ccc(C(=O)Nc2nc(C(F)(F)F)cs2)s1 | > 25 |  |  |  | > 25 |
| CC(C)(CCO)c1csc(NC(=O)Cc2cc(Cl)cc(Cl)c2)n1 | > 25 |  |  |  | > 25 |
| CC(C)(C)c1csc(NC(=O)Cc2ccc(Cl)cc2)n1 | 4.88 |  |  |  | > 25 |
| CC(C)(C)c1csc(NC(=O)C(C)(C)c2ccc(Cl)c(Cl)c2)n1 | 6.49 |  |  |  | > 25 |
| CC(C)(C)c1csc(NC(=O)C2CCOC2)n1 (stereo unspecified) | > 25 |  |  |  | > 25 |
| CC(C)(C)c1csc(NC(=O)c2cc3cc(-c4cccc(Cl)c4)ccc3s2)n1 | 5.02 |  |  |  | > 25 |
| CC(C)(C)c1csc(NC(=O)Cc2cccc(S(C)(=O)=O)c2)n1 | > 25 |  |  |  | > 25 |
| CC(C)(C)c1csc(NC(=O)c2ccc3ocnc3c2)n1 | > 25 |  |  |  | > 25 |
| CC(C)(C)c1csc(NC(=O)Cc2cn(Cc3ccc(Cl)cc3)c3ccc(Cl)cc23)n1 | 0.325 |  |  |  | > 25 |
| CC(C)(C)c1csc(NC(=O)c2cc3cc(-c4ccc(Cl)cc4)ccc3s2)n1 | 14 |  |  |  | > 25 |
| CC(C)(C)c1csc(NC(=O)Cc2cccc(C(F)(F)F)c2)n1 | 6.81 |  |  |  | > 25 |
| CC(C)(C)c1csc(NC(=O)Cc2cccc(Br)c2)n1 | 5.71 |  |  |  | > 25 |
| CC(C)(C)c1csc(NC(=O)Cc2ccc(Cl)c(Cl)c2)n1 | 2.64 |  |  |  | > 25 |
| CC(C)(C)c1csc(NC(=O)Cc2ccc3ccccc3c2)n1 | 15 |  |  |  | > 25 |
| CC(C)(C)c1csc(NC(=O)C2CCc3ccccc3C2)n1 (stereo unspecified) | 11.8 |  |  |  | > 25 |
| CC(C)(C)c1csc(NC(=O)c2cc3cc(C4CCCC4)ccc3s2)n1 | > 25 |  |  |  | > 25 |
| CC(C)(C)c1csc(NC(=O)Cc2cn(-c3ccccc3Cl)c3ccc(Cl)cc23)n1 |  |  | 4.4 | > 25 |  |
| CC(C)(C)c1csc(NC(=O)Cc2cn(Cc3ccccc3)c3ccc(C(N)=O)cc23)n1 |  |  | > 25 | > 25 |  |
| CC(C)(C)c1csc(NC(=O)CN2CCOCC2)n1 | > 25 |  |  |  | > 25 |
| CC1(c2csc(NC(=O)Cc3cn(Cc4ccccc4)c4ccc(Cl)cc34)n2)CC1 | 0.908 |  |  |  | > 25 |

| Structure (SMILES) | IC50 [1] [µM] | IC50 [2] [µM] | IC50 [3] [µM] | IC50 [4] [µM] | IC50 [5] [µM] |
| --- | --- | --- | --- | --- | --- |
| CC(C)(C)c1csc(NC(=O)c2cc3ccccc3o2)n1 | 23.8 |  |  |  | > 25 |
| CC(C)(C)c1csc(NC(=O)Cc2cccs2)n1 | 5.7 |  |  |  | > 80 |
| CC(C)(C)c1csc(NC(=O)c2cc3cc(C4=CCCC4)ccc3s2)n1 | > 25 |  |  |  | > 25 |
| CC(C)(C)c1csc(NC(=O)Cc2cn(Cc3ccccc3)c3ccc(C#N)cc23)n1 |  |  | 6.06 | > 25 |  |
| CC(C)(C)c1csc(NC(=O)Cc2csc3ccc(-c4ccccc4)cc23)n1 | 4.57 |  |  |  | > 25 |
| Cc1ccc(C(=O)Nc2nc(C(C)(C)C)cs2)s1 | 7.65 |  |  |  | > 25 |
| CC(C)(C)c1csc(NC(=O)Cc2cn(CCc3ccccc3)c3ccc(Cl)cc23)n1 |  |  | 4.15 | > 25 |  |
| CC(C)(C)c1csc(NC(=O)c2ccc3c(c2)CCCO3)n1 | 6.09 |  |  |  | > 25 |
| CC(C)(C)c1csc(NC(=O)c2ccnnc2)n1 | > 25 |  |  |  | > 25 |
| CC(C)(C)c1csc(NC(=O)c2cc3cc(C(F)(F)F)ccc3s2)n1 | 16.5 |  |  |  | > 25 |
| CC(C)(C)c1csc(NC(=O)c2cc3ccccc3n2Cc2ccccc2)n1 |  |  | 8.29 | > 25 |  |
| CC(C)(C)c1csc(NC(=O)Cc2csc3ccccc23)n1 | 1.76 |  |  |  | > 25 |
| Cc1ccc(CC(=O)Nc2nc(C(C)(C)C)cs2)c(C)c1 | 7.45 |  |  |  | > 25 |
| CC(C)(C)c1csc(NC(=O)Cc2cn(Cc3ccccn3)c3ccc(Cl)cc23)n1 | 2.08 |  |  |  | > 25 |
| CCCc1ccc2sc(C(=O)Nc3nc(C(C)(C)C)cs3)cc2c1 | 14.1 |  |  |  | > 25 |
| CC(C)c1cccc(C(=O)Nc2nc(C(C)(C)C)cs2)c1 | > 25 |  |  |  | > 25 |
| CC(C)(C)c1csc(NC(=O)C2(c3cccc(Cl)c3)CC2)n1 | 19.6 |  |  |  | > 25 |
| Cc1cc(C(=O)Nc2nc(C3CC3)cs2)cs1 | > 25 |  |  |  | > 25 |
| CC(C)(C)c1csc(NC(=O)c2csc3ccccc23)n1 | 22.6 |  |  |  | > 25 |
